Laboratory results published in patent US5698541A, “2,4-diphosphonoglutaric acid derivatives, processes for their production and pharmaceutical agents containing these compounds” (Boehringer Mannheim GmbH, priority 1994, dated 1997).

Tested on: non-stimulated bone resorption
Experiment: Inhibition of non-stimulated bone resorption by determining the excretion of [3H]-tetracycline in urine
Assay type: in vivo
Settings: rats, subcutaneous, 2 × 200 mg/kg (8 a.m. and 5 p.m. on sixth day of urine collection); reduced [3H]-tetracycline excretion in urine on eighth day
Experimental: Inhibition of non-stimulated bone resorption by determining the excretion of [^3 H]-tetracycline in urine:
From birth onwards rats received a twice-weekly injection of increasing amounts of a solution of 3.7×10^5 Bq/ml (10 μCi/ml) [7-^3 H]-tetracycline ([^3 H]TC); New England Nuclear, Boston, Mass.) with a specific activity of 679 mCi/mmol. The volume per injection is increased from 50 μl/week to 250 μl in the fifth week and kept at this level for a further week. The total amount of administered [^3 H]TC was 20 μCi per rat. 51-day-old rats are transferred to individual metabolic cages and received a group feeding with feed which contained 0.5% Ca and 0.35% P. This feed was produced by addition of appropriate amounts of calcium and phosphate (SODI 2134, "Klingenthalmuhle"). The animals received distilled water ad libitum during the entire duration of the experiment. Collection of 24 hour urine was begun after 61 days. The urine was collected daily at 11 o'clock; the animals also received food at this time. On the sixth day after the start of the urine collection, the animals received subcutaneous injections of the substance (at 8 a.m. and 5 p.m.). […] The ^3 H-TC in urine is determined by liquid scintillation by adding 10 ml of the scintillator Pico-Fluor 30 (Packard International, Zurich, Switzerland) to 1 ml of the urine. […]

`O=C(O)C(CC(CCCN1CCCC1)(C(=O)O)P(=O)(O)O)P(=O)(O)O` (centres unmarked) [Example 4, 2,4-diphosphono-2-pyrrolidinopropylglutaric acid] was tested, and the “% rel. inhibition/dosage” value was 37%.

For `NCCCCC(CC(C(=O)O)P(=O)(O)O)(C(=O)O)P(=O)(O)O` (centres unmarked) [Example 5], the “% rel. inhibition/dosage” value was 45%.
